Where two headings read alike, the source gives them in different places. Marks after values point to notes of the source that are not given here.
Assays:
[1] = tested on: HCMV AD169 strain; assay: Inhibitory effect on HCMV in vitro (MEC, therapeutic index); type: cell-based, human cytomegalovirus; conditions: HCMV AD169, 100 times TCD50, 10 days of culture
Protocol: Human embryonic lung fibroblast cell strain (purchased from Sino Best Biological Technology Co., Ltd.). The cells were cultured and subcultured according to the conventional method.
HCMV AD169 strain was purchased from American Type Culture Collection (ATCC).
Cells were inoculated in a 96-well plate, allowed to grow into monolayers, and inoculated with a virus challenge of 100 times TCD50. Starting from TD0, each drug was diluted stepwise according to 10-fold gradient to prepare 5 concentrations, with 4 wells set for each concentration. In addition, 4 wells of normal cell control and 4 wells of virus control were set.

[2] = tested on: Human embryonic lung fibroblast cell strain
[3] = tested on: carrageenan-induced paw swelling; assay: Carrageenan-induced paw swelling in rats; type: in vivo, Wistar rats; conditions: 100 mg/kg, sublingual intravenous injection
Protocol: Each group was administered by sublingual intravenous injection. Before the study, the normal volume of the right hind limb was measured by the capillary magnification method. To avoid errors, the measurement position should be fixed and performed by one person before and after administration. The average of the two measurements was taken as the normal volume of the right hind limb of the rats prior to administration. […] The inter-group t-test was performed by the difference percentage (swelling rate) of the plantar volume before and after the inflammation induction, and the differences among the groups were compared.

[4] = tested on: Influenza virus; assay: Effect of drugs on viral cytopathic effect, effective antiviral rate (ER%); type: cell-based
[5] = tested on: Parainfluenza virus; assay: as above; type: cell-based; conditions: Vero cells, 100TCID50, drug at maximum non-toxic concentration, 72 h, MTT
[6] = tested on: Coxsackievirus A16 (CoxA16); assay: as above; type: cell-based; conditions: Vero cells, 100TCID50, drug at maximum non-toxic concentration, 72 h, MTT
[7] = tested on: respiratory syncytial virus (RSV); assay: as above; type: cell-based; conditions: Vero cells, 100TCID50, drug at maximum non-toxic concentration, 72 h, MTT
[8] = tested on: Herpes simplex virus type 1 (HSV-1); assay: as above; type: cell-based; conditions: Vero cells, 100TCID50, drug at maximum non-toxic concentration, 72 h, MTT
[9] = tested on: Adenovirus (AdV); assay: as above; type: cell-based; conditions: Vero cells, 100TCID50, drug at maximum non-toxic concentration, 72 h, MTT
[10] = tested on: enterovirus 71 (EV71); assay: as above; type: cell-based; conditions: Vero cells, 100TCID50, drug at maximum non-toxic concentration, 72 h, MTT
[11] = tested on: Coxsackievirus B3 (CVB3); assay: as above; type: cell-based; conditions: Vero cells, 100TCID50, drug at maximum non-toxic concentration, 72 h, MTT
[12] = tested on: influenza virus; type: in vivo, Kunming mice
[13] = tested on: parainfluenza virus; type: in vivo, Kunming mice; conditions: mice infected with parainfluenza virus
[14] = tested on: influenza virus; type: in vivo, Kunming mice; conditions: lung suspension, mice infected with influenza virus, 5 days
[15] = tested on: parainfluenza virus; type: in vivo, Kunming mice; conditions: […], 5 days
[16] = tested on: Vero cells; assay: Cytotoxicity test of drugs on Vero cells (MTT); conditions: 72 h
[17] = tested on: fever induced by beer yeast; assay: Fever induced by beer yeast in rats; type: in vivo, Wistar rats; conditions: 100 mg/kg
[18] = tested on: sweat secretion of rat paw; assay: Sweat secretion of rat paw (staining method); type: in vivo, Wistar rats; conditions: of 10 rats; 35.0 mg/kg subcutaneous
Source text: There are sweat glands on the plantar skin of rats, so the changes in sweat secretion can be observed by the purple reaction between the iodine-starch mixture and the sweat. Five hundred Wistar rats, half male and half female, weighing 120-150 g, were taken in the study. […] The rats were placed in a homemade rat-fixing bag to expose both hind limbs. The dirt on the right paw was gently scrubbed with a cotton swab dipped in absolute ethanol. Except for the pilocarpine solution, which was given by subcutaneous injection, other groups were administered by gavage. One hour after administration (30 min after administration in the pilocarpine group), the sweat secreted from the right paw of rats in each group was gently cleaned with a dry cotton swab before the study and during struggling. The right paw was coated with Wotan-[…] reagent A solution (dissolve 2 g of iodine in 100 mL of absolute ethanol) and then coated with Wotan-[…] reagent B solution (mix 50 g of soluble starch and 100 mL of Ricinus conununis oil well) after reagent A was fully absorbed. […] At the end of the test, a rank-sum test was used to analyze the differences among the groups.

[19] = tested on: epithelial cells of plantar sweat glands of rats; assay: Sweat secretion of rat paw (histomorphology observation method); type: in vivo, Wistar rats; conditions: 30 min after 35.0 mg/kg subcutaneous
Source text: After sweat glands activation in rats, besides the increase of sweat secretion, the morphology of the epithelial cells of the sweat glands changes accordingly. Under the optical microscope, the increase and enlargement of vacuoles in the epithelial cells of the sweat glands are observed. Under an electron microscope, the enlarged vacuoles appear to be due to swelling and rupture of mitochondria, enlargement of fusion and secretory vesicles in the epithelial cells of sweat glands. The secretory activity of sweat glands could be understood by observing the histomorphology of the epithelial cells of plantar sweat glands of rats. Three hundred Wistar rats, half male and half female, weighing 120-160 g. were taken in the study. […] Except for the pilocarpine solution given by subcutaneous injection, other groups were administered by gavage. One hour after the control group was given 0.5% carboxymethyl cellulose, 30 min after the positive drug group was given pilocarpine, and 1 h after the administration of forsythin, ginsenoside Rg3 and the panax ginseng-forsythia suspensa composition, the right hind limb was immediately cut off at the level of the ankle joint. […] Observations were made under an optical microscope for changes in the epithelial cells of the plantar sweat glands of rats in each group, mainly the incidence of vacuoles. The statistical processing was performed by X^2 test, and differences among the groups were compared. The above study was repeated for 3 times.

[20] = mice infected with influenza virus, 19.5 mg/kg/day by gavage, 5 days
[21] = 19.5 mg/kg/day by gavage, 5 days

## COc1ccc(C2OCC3C(c4ccc(OC5OC(C(=O)O)C(O)C(O)C5O)c(O)c4)OCC23)cc1OC [9-Hydroxy-phillygenin glucuronide, 9-hydroxy phillygenin-8-O-β-D-glucuronide]
[1]
  Minimum effective concentration MEC: 0.4 mg/L
[2]
  Maximum non-toxic concentration TD0: 40 mg/L

## COc1cc(C2OCC3C(c4ccc5c(c4)OCO5)OCC23)ccc1OC1OC(C(=O)O)C(O)C(O)C1O [33, 34-methylenedioxy phillygenin-8-O-β-D-glucuronide]
[1]
  Minimum effective concentration MEC: 0.4 mg/L
[2]
  Maximum non-toxic concentration TD0: 40 mg/L

## COc1cc(C2OCC3C(c4ccc(OC5OC(C(=O)O)C(O)C(O)C5O)c(OC)c4)OCC23)ccc1O [33-Hydroxy-phillygenin glucuronide, 33-hydroxy phillygenin-8-O-β-D-glucuronide]
[1]
  Minimum effective concentration MEC: 0.3 mg/L
[2]
  Maximum non-toxic concentration TD0: 30 mg/L

## CC(=O)Oc1ccccc1C(=O)O [Aspinn]
[3]; 15 min after inflammation induction
  Swelling rate (%) 15 min: 8.90±6.70^∗ %
[3]; 30 min after inflammation induction
  Swelling rate (%) 30 min: 15.6±12.2^∗ %
[3]; 60 min after inflammation induction
  Swelling rate (%) 60 min: 20.3±10.9^∗ %
[3]; 120 min after inflammation induction
  Swelling rate (%) 120 min: 21.6±12.1^∗∗ %
[3]; 180 min after inflammation induction
  Swelling rate (%) 180 min: 26.1±21.1^∗∗ %
[3]; 240 min after inflammation induction
  Swelling rate (%) 240 min: 26.1±16.3^∗∗ %
[3]; 300 min after inflammation induction
  Swelling rate (%) 300 min: 34.9±14.6^∗ %
[3]; 360 min after inflammation induction
  Swelling rate (%) 360 min: 31.9±12.2^∗ %

## Nc1nc(O)c2ncn(COC(CO)CO)c2n1 [Ganciclovir (GCV), Ganciclovir, reference compound]
[1]
  Minimum effective concentration MEC: 10 mg/L
[2]; human
  Maximum non-toxic concentration TD0: 10 mg/L

## CCOC(=O)C1=C[C@@H](OC(CC)CC)[C@H](NC(C)=O)[C@@H](N)C1 [Oseltamivir Phosphate, reference compound]
[4]; Vero cells, 100TCID50, drug at maximum non-toxic concentration, 72 h, MTT
  Effective Antiviral Rates (ER%) Influenza virus: 81.76** %
[5]
  Effective Antiviral Rates (ER%) Parainfluenza virus: 94.52** %
[6]
  Effective Antiviral Rates (ER%) CoxA16: 2.95%
[7]
  Effective Antiviral Rates (ER%) RSV: 37.60%
[8]
  Effective Antiviral Rates (ER%) HSV-I: 66.56** %
[9]
  Effective Antiviral Rates (ER%) ADV: 10.31%
[10]
  Effective Antiviral Rates (ER%) EV71: 51.86%
[11]
  Effective Antiviral Rates (ER%) CVB3: 1.64%
[12]; [20]
  Lung index (x̅ ±S): 1.178±0.066
  Lung index Inhibitory rate (%): 19.84%
[12]; mouse, in vivo
  Lung index compared with the infection model group, in words: decreased significantly
[13]; [21]
  Lung index (x̅ ±S): 1.243±0.054
  Lung index Inhibitory rate (%): 21.85%
[13]; P < 0.05 or P < 0.01
  Lung index compared with the infection model group, in words: decreased significantly
[14]; 19.5 mg/kg/day by gavage
  Hemagglutinin titer (InX): 20.50±1.123
  Inhibitory rate (%) of hemagglutination titer: 36.73%
[15]; 19.5 mg/kg/day by gavage
  Hemagglutinin titer (InX): 22.05±1.055
  Inhibitory rate (%) of hemagglutination titer: 33.40%
[16]
  Half toxic concentration (TC50): 0.832 g/L
  Maximum non-toxic concentration (TC0): 0.28 g/L

## CC(=O)Nc1ccc(O)cc1 [Paracetamol, reference compound]
[17]; 1 h post-dose
  Body temperature change (%) (antipyretic percentage), time post-dose 1 h: -2.07±0.54^∗∗ %
  Body temperature, time post-dose 1 h: 38.66±0.59 °C
[17]; 2 h post-dose
  Body temperature change (%) (antipyretic percentage), time post-dose 2 h: -3.27±0.77^∗∗∗ %
  Body temperature, time post-dose 2 h: 38.19±0.59 °C
[17]; 3 h post-dose
  Body temperature change (%) (antipyretic percentage), time post-dose 3 h: -3.80±1.43^∗∗∗ %
  Body temperature, time post-dose 3 h: 37.98±0.19 °C
[17]; 4 h post-dose
  Body temperature change (%) (antipyretic percentage), time post-dose 4 h: -4.15±1.59^∗∗∗ %
  Body temperature, time post-dose 4 h: 37.84±0.32 °C

## CC[C@@H]1C(=O)OC[C@@H]1Cc1cncn1C [Pilocarpine, reference compound]
[18]
  Number of animals with sweat spots of each grade at 1 min after application of solution B: grade +: 1 animals
  Number of animals with sweat spots of each grade at 1 min after application of solution B: grade ++: 3 animals
  Number of animals with sweat spots of each grade at 1 min after application of solution B: grade +++: 1 animals
  Number of animals with sweat spots of each grade at 1 min after application of solution B: grade +++ (fifth grade column): 5 animals
  Number of animals with sweat spots of each grade at 1 min after application of solution B: grade -: 0 animals
  Number of animals with sweat spots of each grade at 5 min after application of solution B: grade +: 1 animals
  Number of animals with sweat spots of each grade at 5 min after application of solution B: grade ++: 2 animals
  Number of animals with sweat spots of each grade at 5 min after application of solution B: grade +++: 1 animals
  Number of animals with sweat spots of each grade at 5 min after application of solution B: grade +++ (fifth grade column): 6 animals
  Number of animals with sweat spots of each grade at 5 min after application of solution B: grade -: 0 animals
[19]
  Number of vacuolar sweat glands (number): 57 number
  Vacuolation rate (%): 27.40^∗∗∗ %

## NC(=O)c1ncn([C@@H]2O[C@H](CO)[C@@H](O)[C@H]2O)n1 [Ribavirin, reference compound]
[4]
  Effective Antiviral Rates (ER%) Influenza virus: 57.49** %
[5]
  Effective Antiviral Rates (ER%) Parainfluenza virus: 91.56** %
[6]
  Effective Antiviral Rates (ER%) CoxA16: 0.70%
[7]
  Effective Antiviral Rates (ER%) RSV: 50.08* %
[8]
  Effective Antiviral Rates (ER%) HSV-I: 62.92** %
[9]
  Effective Antiviral Rates (ER%) ADV: 0.43%
[10]
  Effective Antiviral Rates (ER%) EV71: 4.25%
[11]
  Effective Antiviral Rates (ER%) CVB3: 13.44%
[14]; 58.5 mg/kg/day by gavage
  Hemagglutinin titer (InX): 21.91±1.050
  Inhibitory rate (%) of hemagglutination titer: 32.39%
[15]; 58.5 mg/kg/day by gavage
  Hemagglutinin titer (InX): 23.22±1.091
  Inhibitory rate (%) of hemagglutination titer: 29.86%
